Patent publication US20140051762A1, “POLYCATIONIC COMPOUNDS AND USES THEREOF” (priority 2004, published 2014)
Several values for one entry are separate records, joined by “and”; a condition that tells them apart may be missing. Identical values can stand only once.

Key:
human red blood cells = assay: lysis of 50% of human red blood cells (HC50); assay type: cell-based
Experimental: (§1) The following example illustrates the heparin antagonistic effects of polycationic compounds of the present invention. To determine the anti-heparin activity of the polycationic compounds an assay measuring the percent inhibition using a fixed concentration of polycationic compound or concentrations of polycationic compounds causing lysis of 50% of human red blood cells were conducted.
(§2) Factor Xa Inhibition: EC50. To determine the concentration of polycationic compound that causes about 50% […], fixed heparin concentrations were used and different amounts of heparin antagonists were added.

Factor Xa [1] = assay: anti-heparin assay, % Factor Xa inhibition at single concentration (chromogenic substrate S-2765); assay type: biochemical; conditions: Single concentration (10 ug/ml)
Experimental: as §1
(§3) 10 IU of anti-thrombin was dissolved in 10 ml of buffer, resulting in a 1 IU/ml stock solution (250×) of the anti-thrombin. The 1 IU/ml (250×) stock solution of anti-thrombin and a 336 mM stock solution of NaCl were diluted into a total volume of 50 μl buffer so that the final anti-thrombin concentration was 0.004 IU/sample well and the NaCl was 150 mM/sample well. 1 μl of the compound to be tested, final concentration 10 μg/ml (corresponding to 0.5 logarithmic antagonist dilution) is added to the sample well. The samples are mixed and allowed to incubate at room temperature for 20 minutes. 50 μl of factor Xa dissolved in buffer is added to the sample well to a final concentration of 0.14 knat/well (2 μl of the 7.1 kna/1 ml stock solution to a final sample well buffer volume of 100 μl). The samples were mixed and further incubated at room temperature for 10 minutes. 10 μl of a 4 mM stock solution of the substrate S-2765 was added to each sample well for a final concentration of 0.4 mM in each sample well. The samples were mixed and hydrolyses of the chromogenic substrate Z-D-Arg-Gly-Arg-pNA (S-2765), thus liberating the chromophoric group pNA (p-nitroaniline), was monitored at 405 nm. The samples were mixed every 30 seconds to maintain a uniform mixture. ThermoLabsystems Multiskan Spectrum spectrophotometer was used to measure the absorbance spectrums. The increase in absorbance was proportional to the enzyme (factor Xa) activity. The % inhibition of factor Xa was determined using a standard curve.

Factor Xa [2] = assay: Factor Xa inhibition EC50 (fixed heparin concentrations, different amounts of heparin antagonist); assay type: biochemical; conditions: read-out: FactorXa Inhibition: EC50
Experimental: as §1, §3, §2

[3] = test system: FGF2-induced angiogenesis in the CAM model; assay: FGF2-induced angiogenesis in the chick chorioallantoic membrane (CAM) model; assay type: in vivo, chick embryo; conditions: for Mean % inhibition ± SEM: Table 4
Experimental: The following example illustrates the anti-angiogenic effect of exemplary polycationic compounds of the present invention. Ten-day old embryos were purchased from Spafas, Inc. (Preston, Conn.) and were incubated at 37° C. with 55% relative humidity. In the dark with the help of a candling lamp, a small hole was punctured in the shell concealing the air sac with a hypodermic needle. A second hole was punctured in the shell on the broadside of the egg directly over an avascular portion of the embryonic membrane, as observed during candling. A false air sac was created beneath the second hole by the application of negative pressure to the first hole, which caused the chorioallantoic membrane (CAM) to separate from the shell. A window, approximately 1.0 cm^2, was cut in the shell over the dropped CAM with the use of a small crafts grinding wheel (Dremel, Division of Emerson Electric Company Racine, Wis.) which allowed direct access to the underlying CAM. Filter disks of #1 filter paper (Whatman International, United Kingdom) were soaked in 3 mg/mL cortisone acetate (Sigma, St. Louis, Mo.) in a solution of 95% ethanol and water and subsequently air dried under sterile conditions. FGF2 (Life Technologies, Gaithersburg, Md.) was used to grow vessels on the CAMs of 10 day old chick embryos. Sterile filter disks adsorbed with FGF2 dissolved in PBS at 1μg/mL were placed on growing CAMs. […] At 24 h, test compounds or control vehicle was added directly to CAM topically.
(§4) CAM tissue directly beneath FGF2-saturated filter disk was resected from embryos treated 48 hours prior with test compound or control. Tissues were washed three times with PBS. Sections were placed in a 35-mm petri dish (Nalgen Nunc, Rochester, N.Y.) and examined under a SV6 stereomicroscope (Karl Zeiss, Thornwood, N.Y.) at 50× magnification. Digital images of CAM sections adjacent to filters were collected using a 3-CCD color video camera system (Toshiba America, New York, N.Y.) and analyzed using Image-Pro Plus software (Media Cybernetics, Silver Spring, Md.). Table 4 contains the number of vessel branch points contained in a circular region equal to the area of a filter disk counted for each section.
as §4, with “48 h” for “48 hours”, “with” for “with test”, “dish (Nalge” for “dish (Nalgen”, “analyzed with the” for “analyzed using”, “Md.).” for “Md.). Table 4 contains the number of vessel branch points contained in a circular region equal to the area of a filter disk counted for each section.”

heparin = assay: effect on coagulation time and heparin efficacy
Experimental: The following example illustrates the effect of a polycationic compound of the present invention on coagulation time. The anti-heparin assay as described herein was used. The assay contained either 1 mg/L, 2 mg/L or 4 mg/I of heparin and increasing amounts of Compound 26 was added.

[4] = Heparin 1 mg/L, Compound 26 1.25 mg/L
[5] = Heparin 1 mg/L, Compound 26 2 mg/L
[6] = Heparin 1 mg/L, Compound 26 2.5 mg/L
[7] = Heparin 1 mg/L, Compound 26 4 mg/L
[8] = Heparin 2 mg/L, Compound 26 2.5 mg/L
[9] = Heparin 2 mg/L, Compound 26 4 mg/L
[10] = Heparin 2 mg/L, Compound 26 5 mg/L
[11] = Heparin 2 mg/L, Compound 26 6 mg/L
[12] = Heparin 2 mg/L, Compound 26 10 mg/L
[13] = Heparin 4 mg/L, Compound 26 2.5 mg/L
[14] = Heparin 4 mg/L, Compound 26 4 mg/L
[15] = Heparin 4 mg/L, Compound 26 5 mg/L
[16] = Heparin 4 mg/L, Compound 26 6 mg/L
[17] = Heparin cell empty (4 mg/L from line above), Compound 26 10 mg/L

For `CC(C)(C)c1cc(NC(=O)c2cccc(C(=O)Nc3cc(C(C)(C)C)cc(NC(=O)[C@H](N)CCCNC(=N)N)c3SCCN)c2)c(SCCN)c(NC(=O)[C@H](N)CCCNC(=N)N)c1` [Compound 7], the HC50 (human red blood cells) was 715 μg/ml and 519 μM, the “% FactorXa Inhibition” value (Factor Xa [1]) was 5.506% and the EC50 (Factor Xa [2]) was 3.7 µM.
In the case of `NCCOc1cc(OCCN)c(C(=O)Nc2cccc(N)c2SCCN)cc1C(=O)Nc1cccc(N)c1SCCN` [Compound 25], the HC50 (human red blood cells) is reported as >2,000 μg/ml, the “% FactorXa Inhibition” value (Factor Xa [1]) is reported as 0% and the EC50 (Factor Xa [2]) is reported as 5.3 µM.
`N=C(N)NCCC[C@@H](N)C(=O)Nc1cccc(NC(=O)c2cc(C(=O)Nc3cccc(NC(=O)[C@H](N)CCCNC(=N)N)c3SCCN)c(OCCN)cc2OCCN)c1SCCN` [Compound 26] was tested, and the “% inhibition ± SEM” value ([3]; Table 3, 1.0 ug + FGF2 (1 ug)) was 55 ± 8%, the “Branch pts ± SEM” value ([3]; Table 3, 1.0 ug + FGF2 (1 ug)) was 123 ± 7 and the HC50 (human red blood cells) was >2,000 μg/ml. For the same molecule, the “% FactorXa Inhibition” value (Factor Xa [1]) was 48.14%, the EC50 (Factor Xa [2]) was 2 µM and the “Coagulation Time” value (heparin; [4]) was 42.8 s. The “Heparin Efficacy” value (heparin; [4]) was 0.6506, the “Coagulation Time” value (heparin; [5]) was 33.4 s and the “Heparin Efficacy” value (heparin; [5]) was 0.2402. For the same molecule, the “Coagulation Time” value (heparin; [6]) was 31.3 s, the “Heparin Efficacy” value (heparin; [6]) was 0.1485 and the “Coagulation Time” value (heparin; [7]) was 27.9 s. For the same molecule, the “Heparin Efficacy” value (heparin; [7]) was −1.67E−08, the “Coagulation Time” value (heparin; [8]) was 40.2 s and the “Heparin Efficacy” value (heparin; [8]) was 0.1108. The “Coagulation Time” value (heparin; [9]) was 33.9 s, the “Heparin Efficacy” value (heparin; [9]) was 0.03149 and the “Coagulation Time” value (heparin; [10]) was 31.9 s. The “Heparin Efficacy” value (heparin; [10]) was 0.006297, the “Coagulation Time” value (heparin; [11]) was 31.8 s and the “Heparin Efficacy” value (heparin; [11]) was 0.005038. The “Coagulation Time” value (heparin; [12]) was 34.4 s, the “Heparin Efficacy” value (heparin; [12]) was 0.03778 and the “Coagulation Time” value (heparin; [13]) was 124.8 s. The “Heparin Efficacy” value (heparin; [13]) was 0.513, the “Coagulation Time” value (heparin; [14]) was 87.4 s and the “Heparin Efficacy” value (heparin; [14]) was 0.3108. The “Coagulation Time” value (heparin; [15]) was 55.8 s, the “Heparin Efficacy” value (heparin; [15]) was 0.14 and the “Coagulation Time” value (heparin; [16]) was 35.4 s. For the same molecule, the “Heparin Efficacy” value (heparin; [16]) was 0.02973, the “Coagulation Time” value (heparin; [17]) was 29.9 s and the “Heparin Efficacy” value (heparin; [17]) was −2.06E−09. The “effect on coagulation time (in words)” value (heparin; varying concentrations of heparin) was “decreased the coagulation time”.
For `N=C(N)NCCOc1cc(OCCNC(=N)N)c(C(=O)Nc2cccc(N)c2SCCNC(=N)N)cc1C(=O)Nc1cccc(N)c1SCCNC(=N)N` [Compound 27], the “% inhibition ± SEM” value ([3]; Table 3, 0.1 ug + FGF2 (1 ug)) was 34 ± 9%, the “Branch pts ± SEM” value ([3]; Table 3, 0.1 ug + FGF2 (1 ug)) was 144 ± 9 and the HC50 (human red blood cells) was >2,000 μg/ml. The “% FactorXa Inhibition” value (Factor Xa [1]) was 8.886% and the EC50 (Factor Xa [2]) was 9.7 µM.
`CC(C)(C)c1cc(N)c(SCCN)c(NC(=O)c2cc(C(=O)Nc3cc(C(C)(C)C)cc(N)c3SCCN)ncn2)c1` [Compound 33] was tested, and the “% inhibition ± SEM” value ([3]; Table 3, 1.0 ug + FGF2 (1 ug)) was 17 ± 18%, the “Branch pts ± SEM” value ([3]; Table 3, 1.0 ug + FGF2 (1 ug)) was 160 ± 18 and the “% FactorXa Inhibition” value (Factor Xa [1]) was 32.02%.
`COc1ccc(NC(=O)C(CCCNC(=N)N)NC(=O)c2cc(NC(=O)C(CCCNC(=N)N)NC(=O)c3cc(NC(=O)C(CCCNC(=N)N)NC(=O)c4cc(NC(=O)C(N)CCCNC(=N)N)ccc4OC)ccc3OC)ccc2OC)cc1C(N)=O` (stereo not shown) [Compound 48] was tested, and the “Mean % inhibition ± SEM” value ([3]; 1.0 ug + FGF2 (1 ug), n = 8) was 16 ± 6%, the “Mean % inhibition ± SEM” value ([3]; 3.0 ug + FGF2 (1 ug), n = 8) was 38 ± 8% and the “Mean % inhibition ± SEM” value ([3]; 10 ug + FGF2 (1 ug), n = 8) was 55 ± 7%. The HC50 (human red blood cells) was 261 μg/ml and 144 μM.
For `COc1ccc(NC(=O)C(CCCCN)NC(=O)c2cc(NC(=O)C(CCCCN)NC(=O)c3cc(NC(=O)C(CCCCN)NC(=O)c4cc(NC(=O)C(N)CCCCN)ccc4OC)ccc3OC)ccc2OC)cc1C(N)=O` (stereo not shown) [Compound 50], the “Mean % inhibition ± SEM” value ([3]; 1.0 ug + FGF2 (1 ug), n = 8) was 21 ± 9%, the “Mean % inhibition ± SEM” value ([3]; 3.0 ug + FGF2 (1 ug), n = 8) was 42 ± 8% and the “Mean % inhibition ± SEM” value ([3]; 10 ug + FGF2 (1 ug), n = 8) was 66 ± 7%. For the same molecule, the HC50 (human red blood cells) was 637 μg/ml and 377 μM.
“fibroblast growth factor 2 [FgF2, reference compound]” was tested, and the “Branch pts ± SEM” value ([3]; Table 2, FgF alone 1.0 ug/ml, n = 8) was 155 ± 10 and the “Branch pts ± SEM” value ([3]; Table 3, FgF2 alone 1.0 ug/ml) was 177 ± 10.
